Calls of active or inactive are those of the source. No cut-off for these calls is given here.
Test system: Vaccinia virus
Type: functional, organism-based
Conditions: Orthopoxvirus vaccinia

| SMILES | Activity |
| --- | --- |
| Fc1ccc(CNC23CC4CC(CC2C4)C3)cc1 | inactive |
| CN(Cc1ccccc1)C12CC3(C)CC1CC3(C)C2 | inactive |
| CC(N)C12CC3(C)CC1CC3(C)C2 (stereo unspecified) | inactive |
| CC12CC3CC1(C)CC3(CNC(=N)N)C2 | inactive |
| CN(C)C12CC3(C)CC1CC3(C)C2 | inactive |
| C1CCN(C23CC4CC(CC2C4)C3)CC1 | inactive |
| CC12CC3CC1(C)CC3(NCc1cccs1)C2 | inactive |
| CN(C)CC12CC3(C)CC1CC3(C)C2 | inactive |
| CN(Cc1ccccc1)C12CC3CC(CC1C3)C2 | inactive |
| CNC12CC3CC(CC1C3)C2 | inactive |
| c1ccc(CNCC23CC4CC(CC2C4)C3)cc1 | inactive |
| COc1ccccc1CNC12CC3CC(CC1C3)C2 | inactive |
| c1csc(CNC23CC4CC(CC2C4)C3)c1 | inactive |
| CC12CC3CC1(C)CC3(CN)C2 | inactive |
| COc1ccc(CNC23CC4CC(CC2C4)C3)cc1 | inactive |
| NCC12CC3CC(CC1C3)C2 | inactive |

| SMILES | Activity |
| --- | --- |
| CN(Cc1ccccc1)CC12CC3(C)CC1CC3(C)C2 | inactive |
| CNCC12CC3CC(CC1C3)C2 | inactive |
| CC12CC3CC1(C)CC3(N(Cc1ccccc1)Cc1ccccc1)C2 | inactive |
| CN(C)C12CC3CC(CC1C3)C2 | inactive |
| CN(C)CC12CC3CC(CC1C3)C2 | inactive |
| CN(Cc1ccccc1)CC12CC3CC(CC1C3)C2 | inactive |
| CC12CC3CC1(C)CC3(CNCc1ccccc1)C2 | inactive |
| CNC12CC3(C)CC1CC3(C)C2 | inactive |
| N=C(N)NCC12CC3CC(CC1C3)C2 | inactive |
| CNCC12CC3(C)CC1CC3(C)C2 | inactive |
| COc1cccc(CNC23CC4CC(CC2C4)C3)c1 | inactive |
| c1ccc(CNC23CC4CC(CC2C4)C3)cc1 | inactive |
| CC12CC3CC1(C)CC3(CN1CCCCC1)C2 | inactive |
| CC12CC3CC1(C)CC3(N)C2 | inactive |
| CC12CC3CC1(C)CC3(NCc1ccccc1)C2 | inactive |

From ChEMBL document CHEMBL1151696 (Bioorg Med Chem, 2008)
